Results: patent publication US20130165368A1, “ANTIMICROBIAL COMPOUNDS” (priority 2010, published 2013)
Values after ≈ are worked out from the molar mass of the structure shown. Like-named read-outs stand apart in the source and are kept apart here.

Experiments:
Format in all cases: cell-based
Enterococcus faecalis = assay: MIC agar dilution, micro-organism 17 (775); settings: Enterococcus faecalis 775
In short: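 Agar dilution in Isosensitest/CCEY agar with egg yolk and lysed horse blood; compounds as aqueous emulsions (myristyl and lauryl alcohol with 1-methyl-2-pyrrolidone and Tween 20). 1 µL spots of 1/15-diluted 0.5 McFarland suspensions, 37 °C aerobic, read at 22 and 48 h; MIC (mmol/L) is lowest concentration giving <10 colonies.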

[1] = test system: Gram negative bacteria, Gram positive bacteria and pathogenic yeasts; assay: MIC agar dilution, summary statements over the micro-organisms tested (Tables I, IX)
Source text: For a better understanding, the present invention will now be more particularly described, by way of non-limiting example only, as follows. The micro-organisms shown in Table I overleaf were acquired from the National Collection of Type Cultures (NCTC), Colindale, United Kingdom; the American Type Culture Collection (ATCC), Manassas, United States and the National Collection of Pathogenic Fungi (NCPF), Colindale, United Kingdom. They include Gram negative bacteria, Gram positive bacteria and pathogenic yeasts.
Throughout the period of testing the microbial strains were subcultured and incubated for 18-20 hours at 37° C. on a weekly basis. Horse blood agar plates were used to sustain the micro-organisms both prior to and throughout testing. The alkoxylated alkanols listed in Table II below were obtained (these are obtainable from Sigma-Aldrich Company Ltd, Dorset, England), each having a GC purity of at least 97%.
(§1) Molar equivalent concentrations were used to allow comparison between compounds of differing molecular mass. Due to weighing difficulties, any compound in solid form was melted in a water bath prior to dilution. To make ten-times strength concentrations, which takes into account agar dilution, 0.0352 mmol of each compound was weighed into plastic universal bottles and 4 mL of sterile distilled water (SDW) was added. To produce a homogenous emulsion the universals were vortexed; once achieved the emulsions were serial diluted by adding 2 mL to 2 mL of SDW.
Myristyl alcohol and lauryl alcohol were re-weighed and dissolved in 25 μL of the polar solvent 1-methyl-2-pyrrolidone (M6762; Sigma-Aldrich) in sterile glass universals due to an inability to achieve an even suspension. To maintain an even emulsion in the presence of SDW 37.5 μL of the non-ionic detergent Tween 20 (P1379, Sigma-Aldrich) was also added. 3.9375 mL of SDW was added to these, to create a 4 mL volume; they were vortexed and diluted as before.
(§2) For every 100 mL of Isosensitest agar (IST) (CM0471; Oxoid, Basingstoke, England), 3.1 g of the IST powder was added to 100 mL SDW (as per manufacturer's instructions) and sterilised for 15 minutes at 121° C. Once sterilised, the molten agar was cooled to 50° C. in a water-bath. Subsequently 4.8 g of CCEY powder (BC2160; Bioconnections, Wetherby, England), also known as Brazier's medium, was added to 100 mL SDW for every 100 mL of agar needed. This was then sterilised for 15 minutes at 121° C. Once sterilised the molten agar was cooled to 50° C. in a water-bath and 4 mL of egg-yolk emulsion (S2073; TCS Biosciences Ltd, Buckingham, United Kingdom) and 1 mL of lysed defibrinated horse blood (HB035; TCS Biosciences Ltd, Buckingham, United Kingdom) were also added for every 100 mL needed. Horse blood lysis is achieved by dilution to half concentration with SDW; when fully lysed the mixture will turn dark red in colour.
(§3) 18 mL agar was added to each universal and then poured into sterile Petri dishes. This step creates a 1/10 dilution resulting in agar plates of the required strength. Control plates for each set of strains were created by adding 18 mL of agar to 2 mL of SDW.
(§4) Suspensions of each bacterial species were prepared with a density equal to that of a 0.5 McFarland standard using a densitometer. All suspensions were made using sterile distilled water and fresh 18-20 hour cultures. As a 0.5 McFarland standard contains 1.5×10^8 CFU/mL and the multipoint inoculators applies 1 μL spots of liquid, each bacterial suspension was diluted 1/15 (20 μL suspension to 280 μL sterile distilled water).
Bacterial suspensions were prepared from fresh 18-24 hour cultures as previously described. 1 μL of each strain was inoculated onto all 100 agar plates containing a different chemical concentration and the 2 control plates. This was done using a multipoint inoculator which inoculates 20 strains per plate. All plates were incubated for 22 hours at 37° C. in aerobic conditions. […]

MRSA EMRSA 15 21698/98 = assay: MIC agar dilution, MRSA strain 41; settings: Staphylococcus aureus
Experimental: as §1, §2, §3, §4
(§5) Bacterial suspensions were prepared from fresh 18-24 hour cultures as previously described. 1 μL of each strain was inoculated onto all 100 agar plates containing a different chemical concentration and the 2 control plates. This was done using a multipoint inoculator which inoculates 20 strains per plate. All plates were incubated for 22 hours at 37° C. in aerobic conditions.
(§6) Each plate was examined for bacterial growth after 22 and 48 hours, with each being incubated in between examinations. A positive result was recorded as growth of ≧10 colonies. A negative result was recorded as growth of <10 colonies as this is equivalent to 99.9% inhibition. The lowest concentration of chemical that inhibited growth was recorded as the MIC. The results are recorded in Table IV below, where the numbers are quoted in mmol/L.
(§7) Given the positive performance of the ethoxylates of lauryl alcohol in reducing the MIC for a number of the micro-organisms tested, further MIC testing of Laureth-1 [C12E1] through to Laureth-8 [C12E8] was conducted on each of the following: • 10 strains of vancomycin-resistant enterococci (VRE)—listed in Table V below; and • 20 strains of methicillin-resistant Staphylococcus aureus (MRSA)—listed in Table VI.
(§8) The alkanol, alkanol derivatives, agar plates, and inocula were all prepared in the same way as described above.
(§9) The plates were examined in the same manner as described above and the results are recorded in Table VII below, where the numbers are quoted in mmol/L.

MRSA EMRSA 16 00036/95 = assay: MIC agar dilution, MRSA strain 46; settings: Staphylococcus aureus
Experimental: as §1, §2, §3, §4, §5, §6, §7, §8, §9

MRSA EMRSA 16 21354/95 = assay: MIC agar dilution, MRSA strain 44; settings: Staphylococcus aureus
Experimental: as §1, §2, §3, §4, §5, §6, §7, §8, §9

[2] = test system: Enterococcus faecium (VRE) MB310; assay: MIC agar dilution, VRE strain 29
Experimental: as §1, §2, §3, §4, §5, §6, §7, §8, §9

MRSA EMRSA 16 07924/95 = assay: MIC agar dilution, MRSA strain 49; settings: Staphylococcus aureus
Experimental: as §1, §2, §3, §4, §5, §6, §7, §8, §9

[3] = test system: Enterococcus faecium (VRE) MB 3137; assay: MIC agar dilution, VRE strain 26
Experimental: as §1, §2, §3, §4, §5, §6, §7, §8, §9

MRSA NCTC 11939 = assay: MIC agar dilution, MRSA strain 50; settings: Staphylococcus aureus, MRSA strain 50 NCTC 11939
Experimental: as §1, §2, §3, §4, §5, §6, §7, §8, §9

Row | Structure (SMILES) | MIC (Enterococcus faecalis; 22 hrs, read-out: MIC) [µM] | MIC (Enterococcus faecalis; 48 hrs, read-out: MIC) [µM] | MIC (Enterococcus faecalis; 22 hrs) [µM] | MIC (Enterococcus faecalis; 48 hrs) [µM] | MIC ([1]; over the micro-organisms tested or some of them) | MIC (MRSA EMRSA 15 21698/98; 22 hrs) [µM] | MIC (MRSA EMRSA 15 21698/98; 48 hrs) [µM] | MIC (MRSA EMRSA 16 00036/95; 22 hrs) [µM] | MIC (MRSA EMRSA 16 00036/95; 48 hrs) [µM] | MIC (MRSA EMRSA 16 21354/95; 22 hrs) [µM] | MIC (MRSA EMRSA 16 21354/95; 48 hrs) [µM] | MIC ([1]; read-out: MIC) [µM] | MIC ([2]; 22 hrs) [µM] | MIC ([2]; 48 hrs) [µM] | MIC (MRSA EMRSA 16 07924/95; 22 hrs) [µM] | MIC (MRSA EMRSA 16 07924/95; 48 hrs) [µM] | MIC ([3]; 22 hrs) [µM] | MIC ([3]; 48 hrs) [µM] | MIC (MRSA NCTC 11939; 22 hrs) [µM] | MIC (MRSA NCTC 11939; 48 hrs) [µM]
1 | CCCCCCCCCCCCCCCCO [C0, 1-Hexadecanol, reference compound] | > 880 | > 880 |  |  |  |  |  |  |  |  |  |  |  |  |  |  |  |  |  | 
2 | CCCCCCCCCCCCCOCCOCCOCCOCCOCCOCCO [C13E6, polyoxyethylene (6) tridecyl alcohol] |  |  | 110 (≈ 51.1 µg/mL) | 110 (≈ 51.1 µg/mL) | less than 0.88 mmol/L |  |  |  |  |  |  |  |  |  |  |  |  |  |  | 
3 | CCCCCCCCCCCCOCCO [L1, Ethylene Glycol Monododecyl Ether] | 440 (≈ 101 µg/mL) | 440 (≈ 101 µg/mL) |  |  |  | 220 (≈ 50.7 µg/mL) | 220 (≈ 50.7 µg/mL) | 220 (≈ 50.7 µg/mL) | 220 (≈ 50.7 µg/mL) | 220 (≈ 50.7 µg/mL) | 220 (≈ 50.7 µg/mL) | ≤ 440 | 440 (≈ 101 µg/mL) | 440 (≈ 101 µg/mL) | 220 (≈ 50.7 µg/mL) | 220 (≈ 50.7 µg/mL) | 440 (≈ 101 µg/mL) | 440 (≈ 101 µg/mL) | 220 (≈ 50.7 µg/mL) | 220 (≈ 50.7 µg/mL)
4 | CCCCCCCCCCCCOCCOCCO [L2, Diethylene Glycol Monododecyl Ether] | 220 (≈ 60.4 µg/mL) | 220 (≈ 60.4 µg/mL) |  |  |  | 110 (≈ 30.2 µg/mL) | 110 (≈ 30.2 µg/mL) | 110 (≈ 30.2 µg/mL) | 110 (≈ 30.2 µg/mL) | 110 (≈ 30.2 µg/mL) | 110 (≈ 30.2 µg/mL) |  | 880 (≈ 242 µg/mL) | 880 (≈ 242 µg/mL) | 110 (≈ 30.2 µg/mL) | 110 (≈ 30.2 µg/mL) | > 880 | > 880 | 55 (≈ 15.1 µg/mL) | 110 (≈ 30.2 µg/mL)
5 | CCCCCCCCCCCCOCCOCCOCCO [L3, Triethylene Glycol Monododecyl Ether] | 110 (≈ 35 µg/mL) | 110 (≈ 35 µg/mL) |  |  |  | 110 (≈ 35 µg/mL) | 110 (≈ 35 µg/mL) | 55 (≈ 17.5 µg/mL) | 55 (≈ 17.5 µg/mL) | 110 (≈ 35 µg/mL) | 110 (≈ 35 µg/mL) | ~110 (≈ 35 µg/mL) | 440 (≈ 140 µg/mL) | 440 (≈ 140 µg/mL) | 55 (≈ 17.5 µg/mL) | 55 (≈ 17.5 µg/mL) | 880 (≈ 280 µg/mL) | > 880 | 55 (≈ 17.5 µg/mL) | 55 (≈ 17.5 µg/mL)
